Legend:
[1] = target: His6-TEV-PDGFRβ (557-1016) (Homo sapiens (Human), UniProt P09619); experiment: PDGFRβ HTRF Assay; assay type: biochemical; conditions: read-out: PDGFR HTRF IC50
In short: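 HTRF KinEASE-TK readout (665/620 nm ratio) of TK-biotin substrate phosphorylation by His-tagged PDGFRβ kinase domain. Enzyme and inhibitor preincubated 30 min, then ATP/substrate added for 3 h at room temperature before 60 min EDTA quench/detection.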

[2] = target: Tb-labeled inactive PDGFRβ (Homo sapiens (Human), UniProt P09619); experiment: PDGFRβ LanthaScreen Assay; assay type: binding; conditions: read-out: PDGFR Lantha IC50
[3] = target: VEGFR2, unphosphorylated (Homo sapiens (Human), UniProt P35968); experiment: VEGFR ADP GLO Assay; assay type: biochemical
Sequence of VEGFR2, unphosphorylated (P35968 20-1356): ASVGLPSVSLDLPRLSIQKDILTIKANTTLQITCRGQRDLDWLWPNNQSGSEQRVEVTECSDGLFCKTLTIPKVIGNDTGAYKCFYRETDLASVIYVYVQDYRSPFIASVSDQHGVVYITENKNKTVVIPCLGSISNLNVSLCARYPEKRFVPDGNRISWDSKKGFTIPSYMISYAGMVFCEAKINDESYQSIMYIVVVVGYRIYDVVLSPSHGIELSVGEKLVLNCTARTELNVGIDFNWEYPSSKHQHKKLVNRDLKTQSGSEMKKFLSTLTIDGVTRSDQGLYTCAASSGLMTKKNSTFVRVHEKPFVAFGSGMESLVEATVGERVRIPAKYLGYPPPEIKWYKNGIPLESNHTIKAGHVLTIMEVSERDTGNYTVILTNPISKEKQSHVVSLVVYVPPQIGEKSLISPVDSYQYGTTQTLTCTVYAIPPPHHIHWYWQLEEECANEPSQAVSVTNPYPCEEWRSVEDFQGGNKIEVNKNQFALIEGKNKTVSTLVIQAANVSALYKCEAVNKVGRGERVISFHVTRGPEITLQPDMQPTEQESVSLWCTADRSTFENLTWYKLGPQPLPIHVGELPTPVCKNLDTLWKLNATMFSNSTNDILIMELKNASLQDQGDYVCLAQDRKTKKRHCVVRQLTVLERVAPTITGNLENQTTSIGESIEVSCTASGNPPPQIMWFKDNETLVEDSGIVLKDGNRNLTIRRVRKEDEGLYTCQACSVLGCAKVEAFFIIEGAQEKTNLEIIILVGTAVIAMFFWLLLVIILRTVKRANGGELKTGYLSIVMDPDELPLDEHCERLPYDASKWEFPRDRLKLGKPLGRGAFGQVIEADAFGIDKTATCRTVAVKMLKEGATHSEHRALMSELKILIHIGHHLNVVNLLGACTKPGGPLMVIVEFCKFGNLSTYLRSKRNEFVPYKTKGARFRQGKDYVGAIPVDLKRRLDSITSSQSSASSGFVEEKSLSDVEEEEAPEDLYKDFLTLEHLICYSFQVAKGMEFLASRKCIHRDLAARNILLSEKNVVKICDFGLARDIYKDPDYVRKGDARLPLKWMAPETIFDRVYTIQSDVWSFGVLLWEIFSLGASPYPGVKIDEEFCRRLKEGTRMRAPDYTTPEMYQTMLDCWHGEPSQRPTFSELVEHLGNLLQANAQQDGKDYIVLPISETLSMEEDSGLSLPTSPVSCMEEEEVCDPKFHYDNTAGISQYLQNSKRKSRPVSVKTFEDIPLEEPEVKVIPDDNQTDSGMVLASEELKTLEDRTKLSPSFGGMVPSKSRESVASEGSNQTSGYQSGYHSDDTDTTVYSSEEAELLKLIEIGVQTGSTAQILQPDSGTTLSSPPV

Sequence of Tb-labeled inactive PDGFRβ (P09619 33-1106): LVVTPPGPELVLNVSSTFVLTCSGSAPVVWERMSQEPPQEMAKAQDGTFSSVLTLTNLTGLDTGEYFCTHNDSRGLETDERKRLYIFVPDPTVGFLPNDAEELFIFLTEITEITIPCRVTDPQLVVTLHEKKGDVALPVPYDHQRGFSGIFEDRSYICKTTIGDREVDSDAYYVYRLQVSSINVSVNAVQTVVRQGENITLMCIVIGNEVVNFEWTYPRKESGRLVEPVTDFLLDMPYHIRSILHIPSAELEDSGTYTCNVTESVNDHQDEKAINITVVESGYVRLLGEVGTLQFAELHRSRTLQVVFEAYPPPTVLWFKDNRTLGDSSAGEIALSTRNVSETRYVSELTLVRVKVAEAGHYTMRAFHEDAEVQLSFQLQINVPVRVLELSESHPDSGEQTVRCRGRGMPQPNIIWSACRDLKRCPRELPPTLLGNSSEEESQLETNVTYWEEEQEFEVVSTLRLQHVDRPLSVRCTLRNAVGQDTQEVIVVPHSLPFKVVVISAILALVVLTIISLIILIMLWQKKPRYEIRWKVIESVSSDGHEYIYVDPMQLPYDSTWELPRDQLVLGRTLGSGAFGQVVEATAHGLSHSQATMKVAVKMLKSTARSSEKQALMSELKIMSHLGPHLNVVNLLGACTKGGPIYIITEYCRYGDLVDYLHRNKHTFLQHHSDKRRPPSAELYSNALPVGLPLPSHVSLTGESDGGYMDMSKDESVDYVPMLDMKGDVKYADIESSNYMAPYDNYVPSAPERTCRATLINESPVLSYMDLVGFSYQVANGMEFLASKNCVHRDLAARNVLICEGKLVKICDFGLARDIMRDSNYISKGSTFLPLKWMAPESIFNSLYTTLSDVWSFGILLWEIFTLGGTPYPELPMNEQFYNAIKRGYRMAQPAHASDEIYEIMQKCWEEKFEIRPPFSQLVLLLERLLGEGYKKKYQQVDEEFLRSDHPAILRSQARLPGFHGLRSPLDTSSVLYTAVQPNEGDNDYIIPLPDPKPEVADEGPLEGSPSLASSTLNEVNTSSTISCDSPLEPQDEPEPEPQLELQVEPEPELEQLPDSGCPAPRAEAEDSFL
Sequence of His6-TEV-PDGFRβ (557-1016) (P09619 557-1016): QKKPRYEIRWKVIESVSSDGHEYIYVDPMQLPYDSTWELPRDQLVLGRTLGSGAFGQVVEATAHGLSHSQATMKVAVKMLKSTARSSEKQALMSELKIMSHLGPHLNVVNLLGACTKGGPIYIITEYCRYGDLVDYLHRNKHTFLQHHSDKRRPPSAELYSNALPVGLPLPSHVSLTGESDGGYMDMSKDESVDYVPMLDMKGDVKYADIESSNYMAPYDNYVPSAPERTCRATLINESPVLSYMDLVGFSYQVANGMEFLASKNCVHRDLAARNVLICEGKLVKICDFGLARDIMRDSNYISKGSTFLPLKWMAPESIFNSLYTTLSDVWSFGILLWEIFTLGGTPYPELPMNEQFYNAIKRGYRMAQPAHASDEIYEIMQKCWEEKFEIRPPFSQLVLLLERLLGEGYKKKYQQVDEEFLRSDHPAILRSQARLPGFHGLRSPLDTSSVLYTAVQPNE

Row | SMILES | IC50 [1] | IC50 [2] | IC50 [3]
1 | COc1ncccc1-c1cn2ncc(C(=O)Nc3cc(NC(=O)CN4CCC5(CCOC5)C4)cnc3C)c2s1 (stereo not drawn) [Example 320, N-(5-(2-(2-oxa-7-azaspiro[4.4]nonan-7-yl)acetamido)-2-methylpyridin-3-yl)-2-(2-methoxypyridin-3-yl)pyrazolo[5,1-b]thiazole-7-carboxamide] | 0.2 nM | 1.4 nM | > 7500 nM
2 | CNC(=O)Cn1cc(-c2cn3ncc(C(=O)Nc4cc(NC(=O)CN5CC(C)(C)C5)cnc4C)c3s2)cn1 [Example 279, N-(5-(2-(3,3-dimethylazetidin-1-yl)acetamido)-2-methylpyridin-3-yl)-2-(1-(2-(methylamino)-2-oxoethyl)-1H-pyrazol-4-yl)pyrazolo[5,1-b]thiazole-7-carboxamide] | 0.4 nM | 8.6 nM | > 7500 nM
3 | COc1ncccc1-c1cn2ncc(C(=O)Nc3cc(C(=O)NCCN4CCC[C@@H]4C)cnc3C)c2s1 [Example 301, (S)-2-(2-methoxypyridin-3-yl)-N-(2-methyl-5-((2-(2-methylpyrrolidin-1-yl)ethyl)carbamoyl)pyridin-3-yl)pyrazolo[5,1-b]thiazole-7-carboxamide] | 0.2 nM | 1.4 nM | > 7500 nM
4 | COCCn1cc(-c2cn3ncc(C(=O)Nc4cc(NC(=O)CN5CCCC5(C)C)cnc4C)c3s2)cn1 [Example 329, N-(5-(2-(2,2-dimethylpyrrolidin-1-yl)acetamido)-2-methylpyridin-3-yl)-2-(1-(2-methoxyethyl)-1H-pyrazol-4-yl)pyrazolo[5,1-b]thiazole-7-carboxamide] | 0.5 nM | 5.6 nM | > 7500 nM
5 | COc1ncccc1-c1cn2ncc(C(=O)Nc3cc(NC(=O)CN4CCC5(CC5)C4)cnc3C)c2s1 [Example 324, N-(5-(2-(5-azaspiro[2.4]heptan-5-yl)acetamido)-2-methylpyridin-3-yl)-2-(2-methoxypyridin-3-yl)pyrazolo[5,1-b]thiazole-7-carboxamide] | 0.1 nM | 0.7 nM | 5240 nM
6 | COc1ncccc1-c1cn2ncc(C(=O)Nc3cc(NC(=O)C[C@H]4CCCN4C(C)C)cnc3C)c2s1 [Example 309, (R)—N-(5-(2-(1-isopropylpyrrolidin-2-yl)acetamido)-2-methylpyridin-3-yl)-2-(2-methoxypyridin-3-yl)pyrazolo[5,1-b]thiazole-7-carboxamide] | 0.2 nM | 1.5 nM | > 7500 nM
7 | Cc1ncc(NC(=O)OC[C@@H]2CCCN2C)cc1NC(=O)c1cnn2cc(-c3cccnc3O)sc12 [Example 256, (S)-(1-methylpyrrolidin-2-yl)methyl (5-(2-(2-hydroxypyridin-3-yl)pyrazolo[5,1-b]thiazole-7-carboxamido)-6-methylpyridin-3-yl)carbamate] | 0.6 nM | 14.9 nM | > 7500 nM
8 | Cc1ncc(NC(=O)CN2CC(C)(C)C2)cc1NC(=O)c1cnn2cc(-c3cnn(CC(F)(F)F)c3)sc12 [Example 268, N-(5-(2-(3,3-dimethylazetidin-1-yl)acetamido)-2-methylpyridin-3-yl)-2-(1-(2,2,2-trifluoroethyl)-1H-pyrazol-4-yl)pyrazolo[5,1-b]thiazole-7-carboxamide] | 0.6 nM | 14.5 nM | > 7500 nM
9 | Cc1ncc(NC(=O)CN(C)C2CCOCC2)cc1NC(=O)c1cnn2cc(-c3cnn(C4CC4)c3)sc12 [Example 294, 2-(1-cyclopropyl-1H-pyrazol-4-yl)-N-(2-methyl-5-(2-(methyl(tetrahydro-2H-pyran-4-yl)amino)acetamido)pyridin-3-yl)pyrazolo[5,1-b]thiazole-7-carboxamide] | 0.3 nM | 5.1 nM | > 7500 nM
10 | Cc1ncc(NC(=O)C[C@@H]2CCCN2C(C)C)cc1NC(=O)c1cnn2cc(-c3cccnc3O)sc12 [Example 322, (S)-2-(2-hydroxypyridin-3-yl)-N-(5-(2-(1-isopropylpyrrolidin-2-yl)acetamido)-2-methylpyridin-3-yl)pyrazolo[5,1-b]thiazole-7-carboxamide] | 0.7 nM | 15.5 nM | > 7500 nM
11 | COc1ncccc1-c1cn2ncc(C(=O)Nc3cc(NC(=O)CN4CCCC4)cnc3C)c2s1 [Example 313, 2-(2-methoxypyridin-3-yl)-N-(2-methyl-5-(2-(pyrrolidin-1-yl)acetamido)pyridin-3-yl)pyrazolo[5,1-b]thiazole-7-carboxamide] | 0.2 nM | 2.6 nM | > 7500 nM
12 | Cc1ncc(NC(=O)CN2CC(C)(C)C2)cc1NC(=O)c1cnn2cc(-c3cn[nH]c3)sc12 [Example 271, N-(5-(2-(3,3-dimethylazetidin-1-yl)acetamido)-2-methylpyridin-3-yl)-2-(1H-pyrazol-4-yl)pyrazolo[5,1-b]thiazole-7-carboxamide] | 0.2 nM | 2.8 nM | 5930 nM
13 | COCCn1cc(-c2cn3ncc(C(=O)Nc4cc(NC(=O)CN5CCC[C@H]5C)cnc4C)c3s2)cn1 [Example 330, (R)-2-(1-(2-methoxyethyl)-1H-pyrazol-4-yl)-N-(2-methyl-5-(2-(2-methylpyrrolidin-1-yl)acetamido)pyridin-3-yl)pyrazolo[5,1-b]thiazole-7-carboxamide] | 0.6 nM | 9.6 nM | > 7500 nM
14 | CC[C@H]1CN(CC(=O)Nc2cnc(C)c(NC(=O)c3cnn4cc(-c5cccnc5OC)sc34)c2)CCO1 [Example 311, (S)—N-(5-(2-(2-ethylmorpholino)acetamido)-2-methylpyridin-3-yl)-2-(2-methoxypyridin-3-yl)pyrazolo[5,1-b]thiazole-7-carboxamide] | 0.2 nM | 1.3 nM | > 7500 nM
15 | COc1ncccc1-c1cn2ncc(C(=O)Nc3cc(NC(=O)C[C@@H]4CCCN4C(C)C)cnc3C)c2s1 [Example 323, (S)—N-(5-(2-(1-isopropylpyrrolidin-2-yl)acetamido)-2-methylpyridin-3-yl)-2-(2-methoxypyridin-3-yl)pyrazolo[5,1-b]thiazole-7-carboxamide] | 0.2 nM | 1.7 nM | > 7500 nM
16 | Cc1ncc(NC(=O)CC23CCCN2CCC3)cc1NC(=O)c1cnn2cc(-c3cnn(C)c3)sc12 [Example 302, 2-(1-methyl-1H-pyrazol-4-yl)-N-(2-methyl-5-(2-(tetrahydro-1H-pyrrolizin-7a(5H)-yl)acetamido)pyridin-3-yl)pyrazolo[5,1-b]thiazole-7-carboxamide] | 1.2 nM | 61.2 nM | > 7500 nM
17 | Cc1ncc(NC(=O)CN2CCCC2(C)C)cc1NC(=O)c1cnn2cc(-n3ncc4cccnc43)sc12 [Example 259, N-(5-(2-(2,2-dimethylpyrrolidin-1-yl)acetamido)-2-methylpyridin-3-yl)-2-(1H-pyrazolo[3,4-b]pyridin-1-yl)pyrazolo[5,1-b]thiazole-7-carboxamide] | 0.4 nM | 2.8 nM | > 7500 nM
18 | COc1ncccc1-c1cn2ncc(C(=O)Nc3cc(NC(=O)CN4CCO[C@H](C)C4)cnc3C)c2s1 [Example 318, (R)-2-(2-methoxypyridin-3-yl)-N-(2-methyl-5-(2-(2-methylmorpholino)acetamido)pyridin-3-yl)pyrazolo[5,1-b]thiazole-7-carboxamide] | 0.3 nM | 1.9 nM | > 7500 nM
19 | Cc1ncc(NC(=O)CN2CC(C)(C)C2)cc1NC(=O)c1cnn2cc(-c3ccoc3)sc12 [Example 283, N-(5-(2-(3,3-dimethylazetidin-1-yl)acetamido)-2-methylpyridin-3-yl)-2-(furan-3-yl)pyrazolo[5,1-b]thiazole-7-carboxamide] | 0.1 nM | 2.2 nM | > 7500 nM
20 | Cc1ncc(NC(=O)CN2CC(C)(C)C2)cc1NC(=O)c1cnn2cc(-c3cnn(C4CCNCC4)c3)sc12 [Example 293, N-(5-(2-(3,3-dimethylazetidin-1-yl)acetamido)-2-methylpyridin-3-yl)-2-(1-(piperidin-4-yl)-1H-pyrazol-4-yl)pyrazolo[5,1-b]thiazole-7-carboxamide] | 0.4 nM | 4.6 nM | > 7500 nM
21 | Cc1ncc(NC(=O)CN2CC(C)(C)C2)cc1NC(=O)c1cnn2cc(-c3cnn(CC4COC4)c3)sc12 [Example 263, N-(5-(2-(3,3-dimethylazetidin-1-yl)acetamido)-2-methylpyridin-3-yl)-2-(1-(oxetan-3-ylmethyl)-1H-pyrazol-4-yl)pyrazolo[5,1-b]thiazole-7-carboxamide] | 0.6 nM | 7.9 nM | > 7500 nM
22 | Cc1ncc(NC(=O)CN2CC(C)(C)C2)cc1NC(=O)c1cnn2cc(-c3cnn(C4COC4)c3)sc12 [Example 264, N-(5-(2-(3,3-dimethylazetidin-1-yl)acetamido)-2-methylpyridin-3-yl)-2-(1-(oxetan-3-yl)-1H-pyrazol-4-yl)pyrazolo[5,1-b]thiazole-7-carboxamide] | 0.4 nM | 6.1 nM | > 7500 nM
23 | Cc1ncc(NC(=O)CN(C)C2CCOCC2)cc1NC(=O)c1cnn2cc(-c3cnn(CC#N)c3)sc12 [Example 299, 2-(1-(cyanomethyl)-1H-pyrazol-4-yl)-N-(2-methyl-5-(2-(methyl(tetrahydro-2H-pyran-4-yl)amino)acetamido)pyridin-3-yl)pyrazolo[5,1-b]thiazole-7-carboxamide] | 0.5 nM | 6 nM | > 7500 nM
24 | Cc1ncc(NC(=O)CN2CC(C)(C)C2)cc1NC(=O)c1cnn2cc(-c3cc[nH]c3)sc12 [Example 285, N-(5-(2-(3,3-dimethylazetidin-1-yl)acetamido)-2-methylpyridin-3-yl)-2-(1H-pyrrol-3-yl)pyrazolo[5,1-b]thiazole-7-carboxamide] | 0.1 nM | 1.3 nM | > 7500 nM

Source: patent publication US20240109917A1 (ACTELION PHARMACEUTICALS LTD, priority 2020, published 2024)
